Biological target: T1, Edg-1/S1P1 receptor (Homo sapiens, UniProt P21453)
T1 construct: expressed in transfected cells; host or cells: human osteogenic sarcoma U2OS cells: Edg-1 Transfluor U2OS WT Clone #37 (assay I), Edg-1 Transfluor U2OS Clone #3 (assay II)
Test: In vitro cell based receptor activation assay - Transfluor assay (assay I or II; beta-arrestin GFP relocalization after S1P stimulation)
Conditions: for inhibition at 3.5 µM: at 3.50 μM (titrated from top concentration 10 μM); for inhibition at 3.7 µM: at 3.70 μM (titrated from top concentration 100 μM)
Description: The following assays can be used to measure the effects of the compounds of the present invention as S1P1/Edg1 inhibitors.
I. In Vitro Cell Based Receptor Activation Assay-Transfluor Assay
(§1) This cell-based assay was designed to assess the ability of small molecule antagonists to inhibit activation of the GPCR S1P1 in the presence of its cognate ligand S1P. The assay used technology initially developed by Norak Biosciences (Xsira Pharmaceutical) and presently owned by Molecular Devices. A human osteogenic sarcoma (U2OS) cell line overexpressing the Edg-1/S1P1) receptor as well as a beta-arrestin/green fluorescent protein (GFP) construct hereafter termed Edg-1 Transfluor U2OS WT Clone #37 was employed.
Using a high content screening approach (Cellomics Arrayscan), receptor activity was measured by assessment of the relocalization of beta-arrestin GFP in response to stimulation of Edg-1 by SIP. Specifically, Edg-1 Transfluor U2OS WT Clone #37 cells were plated at a density of 6250 cells in 40 μL medium per well in 384 well plastic bottomed microtiter plates (BD Falcon) and incubated overnight at 37° C./5% CO2. Prior to screening, compounds were dissolved in 100% dimethyl sulfoxide (DMSO) to a final stock concentration of 10 mM. Compounds were then serially diluted at 30× final concentration in Edg-1 Transfluor cell growth medium containing […] using the Tecan Genesis instrument. These 30× plates were then diluted to 6× final concentration with Edg-1 Transfluor growth medium just prior to dosing. Cells were then dosed with 10 μL per well of 6× compound dilutions or 6% DMSO and pre-incubated for 15 minutes at room temperature. Cell plates were dosed with 10 μL per well 6× S1P Edg-1 Transfluor growth medium, then incubated for 45 minutes at 37° C./5% CO2. Final concentration in the well of DMSO was 1%, compound was IX (3-fold, 9 point IC50 dilutions starting at 100 μM final concentration), and either 375 nM or […] SIP ligand. Cell plates were then fixed by adding 50 μL per well of 5% formaldehyde in 1× Dulbecco's phosphate buffered saline (DPBS) directly and incubating for 30 minutes at room temperature in darkness. Fixative was removed and replaced with 50 μL per well of 1×DPBS, after which cells were stained with 10 μg/mL final concentration of Hoechst 33342 (Molecular Probes) for 15 minutes at room temperature in darkness. Stain was then removed from the plates and replaced with 50 μL per well of 1×DPBS using the BioTek ExL405 plate washer. Plates were then sealed and analysed on the Cellomics Arrayscan using the GPCR signalling algorithm. EC50 values were then calculated using IDBS ActivityBase software.
II. In Vitro Cell Based Receptor Activation Assay-Transfluor Assay
as §1, with “Devices (MDS Analytical Technologies).” for “Devices.”, “U2OS” for “U2OS WT”, “#3” for “#37”
Using a high content screening approach (Molecular Devices Image Express), receptor activity was measured by assessment of the relocalization of beta-aiTestin GFP in response to stimulation of Edg-1 by S1P. Specifically, Edg-1 Transfluor U2OS Clone #3 cells were plated at a density of 6250 cells in 44 μL medium per well in 384 well plastic bottomed microtiter plates (BD Falcon) and incubated overnight at 37° C./5% CO2. Prior to screening, compounds were dissolved in 100% dimethyl sulfoxide (DMSO) to a final stock concentration of 10 mM. Compounds were then serially diluted at 10× final concentration in Edg-1 Transfluor cell growth medium containing 6% DMSO using the BioMek instrument. […]

T1 sequence (P21453 whole entry): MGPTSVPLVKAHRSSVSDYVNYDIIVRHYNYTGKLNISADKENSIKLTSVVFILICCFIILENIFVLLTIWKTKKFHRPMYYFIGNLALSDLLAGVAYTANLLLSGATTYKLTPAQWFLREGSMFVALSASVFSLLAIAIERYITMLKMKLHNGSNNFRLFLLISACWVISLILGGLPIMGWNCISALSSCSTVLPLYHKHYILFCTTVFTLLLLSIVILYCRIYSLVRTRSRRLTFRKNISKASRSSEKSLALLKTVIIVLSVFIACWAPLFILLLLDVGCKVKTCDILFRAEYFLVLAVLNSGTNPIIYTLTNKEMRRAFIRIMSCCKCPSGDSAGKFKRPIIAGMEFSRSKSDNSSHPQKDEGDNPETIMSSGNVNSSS

Row | Structure (SMILES) | inhibition at 3.5 µM [%] | further results
1 | CCn1c([C@@H](C)NS(=O)(=O)c2ccc(S(C)(=O)=O)cc2)nc2ccc(C(F)(F)F)cc21 [Example 131, (R)-N-(1-(1-Ethyl-6-(trifluoromethyl)-1H-benzo[d]imidazol-2-yl)ethyl)-4-(methylsulfonyl)-benzenesulfonamide] | 95 | –
2 | CCn1c(C(C)(C)NS(=O)(=O)c2ccc(C#N)nc2)nc2ncccc21 [Example 177, 6-cyano-N-(2-(1-ethyl-1H-imidazo[4,5-b]pyridin-2-yl)propan-2-yl)pyridine-3-sulfonamide] | 3.55 | –
3 | CCn1c([C@@H](C)NS(=O)(=O)c2ccc(Cl)cc2)nc2ncc(C(F)(F)F)cc21 [Example 88, 4-Chloro-N-{(1R)-1-[1-ethyl-6-(trifluoromethyl)-1H-imidazo[4,5-b]pyridin-2-yl]ethyl}benzenesulfonamide] | – | inhibition at 3.55 µM (at 3.55 μM): 82.6%
4 | CCn1c([C@@H](C)NS(=O)(=O)c2cnc(Cl)c(Cl)c2)nc2ccc(C(F)(F)F)cc21 [Example 48, 5,6-dichloro-N-(1-(1-ethyl-6-(trifluoromethyl)-1H-benzo[d]imidazol-2-yl)ethyl)pyridine-3-sulfonamide] | 95.4 | –
5 | CCn1c([C@@H](C)NS(=O)(=O)c2cc[n+]([O-])cc2)nc2ccc(C(F)(F)F)cc21 [Example 165, (R)-4-(N-(1-(1-Ethyl-6-(trifluoromethyl)-1H-benzo[d]imidazol-2-yl)ethyl)sulfamoyl)pyridine 1-oxide] | 75.6 | –
6 | CCCn1c(C(C)NS(=O)(=O)c2ccc(Cl)cc2)nc2ccccc21 (stereo not drawn) [Example 17, 4-Chloro-N-[1-(1-propyl-1H-benzimidazol-2-yl)ethyl]-benzenesulfonamide] | – | inhibition at 3.3 µM (at 3.30 μM (run with this as top concentration)): 92.8%
7 | CCn1c([C@@H](C)NS(=O)(=O)c2cn(C)nc2C)nc2ccc(C(F)(F)F)cc21 [Example 41, N-{(1R)-1-[1-Ethyl-6-(trifluoromethyl)-1H-benzimidazol-2-yl]ethyl}-1,3-dimethyl-1H-pyrazole-4-sulfonamide] | – | inhibition at 3.7 µM: 61%
8 | CCn1c([C@@H](C)NS(=O)(=O)c2ccc3nsnc3c2)nc2ccc(C(F)(F)F)cc21 [Example 46, N-{(1R)-1-[1-Ethyl-6-(trifluoromethyl)-1H-benzimidazol-2-yl]ethyl}-2,1,3-benzothiadiazole-5-sulfonamide] | – | inhibition at 3.7 µM: 89.8%
9 | CCn1c(C(C)NS(=O)(=O)c2ccc(Cl)cc2)nc2cccnc21 (stereo not drawn) [Example 15, 4-Chloro-N-[1-(3-ethyl-3H-imidazo[4,5-b]pyridin-2-yl)ethyl]benzenesulfonamide] | – | inhibition at 3.7 µM: 61.5%
10 | CCn1c([C@@H](C)NS(=O)(=O)c2cc(C)nc(C)c2)nc2ccc(C(F)(F)F)cc21 [Example 160, (R)-N-(1-(1-Ethyl-6-(trifluoromethyl)-1H-benzo[d]imidazol-2-yl)ethyl)-2,6-dimethylpyridine-4-sulfonamide] | 90.3 | –
11 | CCn1c([C@@H](C)NS(=O)(=O)c2ccc(Cl)cc2)nc2ccc(CN(C)C)cc21 [Example 74, 4-Chloro-N-((1R)-1-{6-[(dimethylamino)methyl]-1-ethyl-1H-benzimidazol-2-yl}ethyl)benzenesulfonamide] | – | inhibition at 3.7 µM: 30.4%
12 | CCn1c([C@@H](C)NS(=O)(=O)c2ccc(Cl)cc2)nc2cc(F)cc(F)c21 [Example 57, 4-Chloro-N-[(1R)-1-(1-ethyl-5,7-difluoro-1H-benzimidazol-2-yl)ethyl]benzenesulfonamide] | – | inhibition at 3.7 µM: 84.5%
13 | CCn1c(C(C)(C)NS(=O)(=O)c2ccc(F)cc2)nc2cnc(C(F)(F)F)cc21 [Example 153, N-(2-(1-Ethyl-6-(trifluoromethyl)-1H-imidazo[4,5-c]pyridin-2-yl)propan-2-yl)-4-fluorobenzenesulfonamide] | 82 | –
14 | CCn1c([C@H](C)NS(=O)(=O)c2ccc(Cl)cc2)nc2cnccc21 [4-chloro-N-[(1S)-1-(1-ethyl-1H-imidazo[4,5-c]pyridin-2-yl)ethyl]benzenesulfonamide] | – | EC50 (one or the other of the two Transfluor assays, Edg-1 Transfluor U2OS cells, S1P ligand): > 33 µM
15 | CCn1c([C@@H](C)NS(=O)(=O)c2ccc(C(N)=O)nc2)nc2cnc(OC)cc21 [Example 152] | 91.8 | –
16 | CCn1c([C@@H](C)NS(=O)(=O)c2ccc(C#N)cc2)nc2cnc(C(F)(F)F)cc21 [Example 146, (R)-4-Cyano-N-(1-(1-ethyl-6-(trifluoromethyl)-1H-imidazo[4,5-c]pyridin-2-yl)ethyl)benzenesulfonamide] | 91.8 | –
17 | CCn1c([C@@H](C)NS(=O)(=O)c2ccc(Cl)cc2)nc2ccc(F)c(F)c21 [Example 65, 4-Chloro-N-[(1R)-1-(1-ethyl-6,7-difluoro-1H-benzimidazol-2-yl)ethyl]benzenesulfonamide] | – | inhibition at 3.7 µM: 84.2%
18 | CCn1c(C(C)NS(=O)(=O)c2ccc(Cl)cc2)nc2ccncc21 (stereo not drawn) [Example 14, 4-Chloro-N-[1-(3-ethyl-3H-imidazo[4,5-c]pyridin-2-yl)ethyl] benzene sulfonamide] | – | inhibition at 3.7 µM: 72.8%
19 | CCn1c(C(Cc2ccc(F)cc2)NS(=O)(=O)c2ccc(Cl)cc2)nc2ccccc21 (stereo not drawn) [Example 6] | – | inhibition at 3.7 µM: 77.7%
20 | CCn1c([C@@H](C)NS(=O)(=O)c2ccc(F)c(CN)c2)nc2ccc(C(F)(F)F)cc21 [Example 134, 3-(Aminomethyl)-N-[(1R)-1-[1-ethyl-6-(trifluoromethyl)-1H-benzimidazol-2-yl]ethyl]-4-fluorobenzenesulfonamide] | 95 | –
21 | C#Cc1ccc(S(=O)(=O)N[C@H](C)c2nc3ccc(C(F)(F)F)cc3n2CC)cn1 [Example 133, (R)-N-(1-(1-Ethyl-6-(trifluoromethyl)-1H-benzo[d]imidazol-2-yl)ethyl)-6-ethynylpyridine-3-sulfonamide] | 86.4 | –

Further lines, with some results ahead:

Row | inhibition at 3.5 µM [%] | Structure (SMILES) | further results
22 | 10.8 | CCn1c(C(C)NS(=O)(=O)c2ccc(CN3CCOCC3)cc2)nc2ccc(C(F)(F)F)cc21 (stereo not drawn) [Example 130, N-(1-(1-ethyl-6-(trifluoromethyl)-1H-benzo[d]imidazol-2-yl)ethyl)-4-(morpholinomethyl)benzenesulfonamide] | –
23 | 82.9 | CCn1c(C(C)(C)NS(=O)(=O)c2ccc(Cl)cc2)nc2ccc(C(F)(F)F)cc21 [Example 136, 4-Chloro-N-{1-[1-ethyl-6-(trifluoromethyl)-1H-benzimidazol-2-yl]-1-methylethyl}benzenesulfon-amide] | –
24 | 73 | CCn1c([C@@H](C)NS(=O)(=O)c2ccc(Cl)cc2)nc2cc(C)c(C)cc21 [Example 24, 4-Chloro-N-[(1R)-1-(1-ethyl-5,6-dimethyl-1H-benzimidazol-2-yl)ethyl]benzenesulfonamide] | –
25 | 85.2 | CCn1c([C@@H](C)NS(=O)(=O)c2ccc(Cl)cc2)nc2ccc(C(F)F)cc21 [Example 69, 4-Chloro-N-{(1R)-1-[6-(difluoromethyl)-1-ethyl-1H-benzimidazol-2-yl]ethyl}benzenesulfonamide] | –
26 | 90.5 | CCn1c([C@@H](C)NS(=O)(=O)c2ccc(F)cc2)nc2ncc(C(F)(F)F)cc21 [Example 179, N-{(1R)-1-[1-Ethyl-6-(trifluoromethyl)-1H-imidazo[4,5-b]pyridin-2-yl]ethyl}-4-fluorobenzene sulfonamide] | –
27 | 96.2 | CCn1c(C(C)(C)NS(=O)(=O)c2ccc(Cl)cc2)nc2ccccc21 [Example 16, 4-Chloro-N-[1-(1-ethyl-1H-benzoimidazol-2-yl)-1-methyl-ethyl]-benzenesulfonamide] | –

— patent US20100029643A1 (ASTRAZENECA AB, priority 2006, published 2010)
